Source: patent US20220096376A1, “DRUG DELIVERY PLATFORM USING W/O/W-TYPE TRIOLEIN EMULSION PROMOTIVE OF BLOOD-BRAIN BARRIER OPENING” (PUSAN NATIONAL UNIVERSITY INDUSTRY-UNIVERSITY COOPERATION …, priority 2019, published 2022)
“And” between values parts separate entries of the source, which are not always exact repeats. Equal entries are not always repeated.

Assay: Confirmation of drug delivery activity to brain (doxorubicin concentration by fluorometer)
Assay type: in vivo
Details: rabbit
Method: A triolein emulsion having a W/O/W double structure and an average particle diameter of 7 μm was prepared in the same manner as described above. After diluting by mixing 0.2 ml (2%) of the emulsion in 10 ml of physiological saline, 7 ml of the emulsion diluted in the same procedure as in the experiment in which the trypan blue was added to 1.7 kg male rabbits distributed from Semtako and doxorubicin, a water-soluble drug, were injected, and 2 hours later, the brain of the rabbit was excised and the concentration of doxorubicin was measured using a fluorometer. At this time, three brain tissues were taken off and measured three times.

[1] = 7 ml diluted W/O/W triolein emulsion and doxorubicin injected, 2 hours later, single measurements
[2] = with W/O/W triolein emulsion, 2 hours, Average

Doxorubicin concentration in the left brain (RFU) [2]: 73.56 RFU | Doxorubicin concentration in the right brain (RFU) [2]: 439.11 RFU | Right brain doxorubicin/left brain doxorubicin ratio [2]: 6.12
Compound: COc1cccc2c1C(=O)c1c(O)c3c(c(O)c1C2=O)C[C@@](O)(C(=O)CO)C[C@@H]3O[C@H]1C[C@H](N)[C@H](O)[C@H](C)O1 [Doxorubicin, doxorubicin]
Doxorubicin concentration in the left brain (RFU) [1]: 64 RFU and 77 RFU and 89 RFU and 78 RFU and 65 RFU and 70 RFU and 53 RFU and 88 RFU | Doxorubicin concentration in the right brain (RFU) [1]: 420 RFU and 445 RFU and 431 RFU and 444 RFU and 455 RFU and 464 RFU and 437 RFU and 428 RFU
